Source: ChEMBL document CHEMBL5500342, “Rational molecular design converting fascaplysin derivatives to potent broad-spectrum inhibitors against bacterial pathogens via targeting FtsZ” (Eur J Med Chem, 2024)
Active and inactive are the calls of the source. The rule behind the calls is not given here.

Columns and labels:
[1] = system: Staphylococcus aureus; test: Antibacterial activity against methicillin-resistant Staphylococcus aureus ATCC43300 at assessed as reduction in bacterial growth at 0.5 times of MIC incubated for 18 to 24 hrs and measured after 25 passages by drug resistance assay; assay type: functional, organism-based
[2] = target: T1, Cell division protein FtsZ (Escherichia coli K-12) (UniProt P0A9A6); test: Induction of FtsZ polymerization in penicillin-susceptible Escherichia coli ATCC25922 assessed as larger bundles at 4 microg/ml preincubated for 10 mins followed by GTP addition and measured after 15 mins by transmission electron microscopic analysis; settings: filed as activator, dose 4.0 µg/ml, time 25.0 min
T1 sequence (whole entry): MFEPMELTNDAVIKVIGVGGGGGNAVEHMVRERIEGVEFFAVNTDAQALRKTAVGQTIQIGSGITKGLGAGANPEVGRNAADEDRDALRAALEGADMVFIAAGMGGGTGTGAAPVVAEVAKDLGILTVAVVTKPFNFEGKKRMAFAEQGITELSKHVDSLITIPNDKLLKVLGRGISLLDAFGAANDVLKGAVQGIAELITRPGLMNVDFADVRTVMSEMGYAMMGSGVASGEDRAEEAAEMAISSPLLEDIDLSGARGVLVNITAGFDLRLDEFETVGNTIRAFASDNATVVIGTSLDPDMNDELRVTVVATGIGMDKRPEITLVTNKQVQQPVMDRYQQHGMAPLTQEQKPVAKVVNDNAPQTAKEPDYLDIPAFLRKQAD

[3] = target: T1, Cell division protein FtsZ (Escherichia coli K-12); test: Induction of recombinant FtsZ polymerization in penicillin-susceptible Escherichia coli ATCC25922 assessed as stabilization of FtsZ polymers at 1 to 4 microg/ml incubated for 10 mins by light scattering assay; settings: filed as activator, dose 1-4 µg/ml
[4] = Selectivity ratio of MBC for bactericidal activity against penicillin-susceptible Escherichia coli ATCC25922 to MIC for antibacterial activity against penicillin-susceptible Escherichia coli ATCC25922; assay type: functional
[5] = system: Cell membrane; test: Disruption of cell membrane integrity in penicillin-susceptible Escherichia coli ATCC25922 assessed as appearance of wrecked cells at 4 times of MIC incubated for 2 hrs by transmission electron microscopic analysis; assay type: cell membranes
[6] = system: Cell membrane; test: Disruption of cell membrane integrity in methicillin-resistant Staphylococcus aureus ATCC43300 assessed as appearance of striated structures at 4 times of MIC incubated for 2 hrs by scanning electron microscopic analysis; assay type: cell membranes
[7] = system: Cell membrane; test: Disruption of cell membrane integrity in methicillin-resistant Staphylococcus aureus ATCC43300 assessed as appearance of collapsed cells at 4 times of MIC incubated for 2 hrs by transmission electron microscopic analysis; assay type: cell membranes
[8] = system: Escherichia coli; test: Antibacterial activity against penicillin-susceptible Escherichia coli ATCC25922 assessed as log reduction in bacterial count by time kill kinetics assay; assay type: functional
[9] = system: Cell membrane; test: Disruption of cell membrane integrity in penicillin-susceptible Escherichia coli ATCC25922 at 4 times of MIC incubated for 2 hrs by scanning electron microscopic analysis; assay type: cell membranes
[10] = system: Staphylococcus aureus; test: Antibacterial activity against methicillin-resistant Staphylococcus aureus ATCC43300 assessed as reduction in bacterial count at 1 times of MIC incubated for 24 hrs by time kill kinetics assay; assay type: functional, organism-based
[11] = system: Salmonella enteritidis; test: Antibacterial activity against Salmonella enteritidis BNCC281091 assessed as inhibition of bacterial growth incubated for 18 hrs by CLSI protocol based microbroth dilution method; assay type: functional, Salmonella enterica subsp. enterica serovar Enteritidis; settings: Salmonella enterica
[12] = system: Staphylococcus aureus; test: Inhibition of biofilm formation in methicillin-resistant Staphylococcus aureus ATCC43300 assessed as decrease in biofilm formation rate at 6.25 microg/ml incubated for 24 hrs by crystal violet staining based analysis relative to control; assay type: functional; design: scale not given: the % may be the effect or the level left; settings: dose 6.25 µg/ml
[13] = system: Escherichia coli; test: Bactericidal activity against penicillin-susceptible Escherichia coli ATCC25922 incubated for 24 hrs by CLSI protocol based microbroth dilution method; assay type: functional
[14] = system: Staphylococcus aureus; test: Antibacterial activity against methicillin-resistant Staphylococcus aureus ATCC43300 assessed as reduction in bacterial count at 4 times of MIC incubated for 24 hrs by time kill kinetics assay; assay type: functional, organism-based
[15] = target: T1, Cell division protein FtsZ (Escherichia coli K-12); test: Enhancement of FtsZ GTPase activity in penicillin-susceptible Escherichia coli ATCC25922 upto 8 microg/ml incubated for 30 mins by malachite green phosphate based assay relative to control; settings: dose <= 8.0 µg/ml
[16] = system: Streptococcus pneumoniae; test: Antibacterial activity against Streptococcus pneumoniae ATCC49619 assessed as inhibition of bacterial growth incubated for 18 hrs by CLSI protocol based microbroth dilution method; assay type: functional
[17] = system: Bacillus subtilis; test: Antibacterial activity against Bacillus subtilis BNCC336690 assessed as inhibition of bacterial growth incubated for 18 hrs by CLSI protocol based microbroth dilution method; assay type: functional
[18] = system: Staphylococcus aureus; test: Antibacterial activity against methicillin-resistant Staphylococcus aureus ATCC43300 assessed as log reduction in bacterial count measured within 0.5 hrs by time kill kinetics assay; assay type: functional
[19] = system: Cell membrane; test: Disruption of cell membrane integrity in methicillin-resistant Staphylococcus aureus ATCC43300 assessed as appearance of sunken fine microstructures at 4 times of MIC incubated for 2 hrs by scanning electron microscopic analysis; assay type: cell membranes
[20] = system: Staphylococcus aureus; test: Inhibition of biofilm formation in methicillin-resistant Staphylococcus aureus ATCC43300 assessed as decrease in biofilm formation rate at 16 times of MIC incubated for 24 hrs by crystal violet staining based analysis relative to control; assay type: functional; design: scale not given: the % may be the effect or the level left
[21] = system: Escherichia coli; test: Antibacterial activity against penicillin-susceptible Escherichia coli ATCC25922 assessed as log reduction in bacterial count at 4 times of MIC measured after 1 hrs by time kill kinetics assay; assay type: functional
[22] = system: Cell membrane; test: Disruption of cell membrane integrity in methicillin-resistant Staphylococcus aureus ATCC43300 assessed as leakage of intracellular contents at 4 times of MIC incubated for 2 hrs by transmission electron microscopic analysis; assay type: cell membranes
[23] = system: Staphylococcus aureus; test: Inhibition of biofilm formation in methicillin-resistant Staphylococcus aureus ATCC43300 assessed as decrease in biofilm formation rate at 4 times of MIC incubated for 24 hrs by crystal violet staining based analysis relative to control; assay type: functional; design: scale not given: the % may be the effect or the level left
[24] = Cytotoxicity against mouse RAW264.7 cells assessed as cell viability at 6.25 microg/ml incubated for 24 hrs by CCK8 assay relative to control; assay type: toxicity, cell-based; settings: at 6.25 µg/mL, read-out: Activity
[25] = system: Escherichia coli; test: Antibacterial activity against penicillin-susceptible Escherichia coli ATCC25922 assessed as log reduction in bacterial count at 1 times of MIC measured after 2 hrs by time kill kinetics assay; assay type: functional, organism-based
[26] = system: Escherichia coli; test: Drug resistance, ratio of MIC for penicillin-susceptible Escherichia coli ATCC25922 incubated for 18 to 24 hrs and measured after 21 passages to MIC for penicillin-susceptible Escherichia coli ATCC25922 measured after 18 to 24 hrs; assay type: functional
[27] = system: Escherichia coli; test: Antibacterial activity against penicillin-susceptible Escherichia coli ATCC25922 assessed as log reduction in bacterial count at 4 times of MIC measured after 24 hrs by time kill kinetics assay; assay type: functional, organism-based
[28] = Cytotoxicity against mouse RAW264.7 cells assessed as cell viability at 3.125 microg/ml incubated for 24 hrs by CCK8 assay relative to control; assay type: toxicity, cell-based; settings: dose 3.125 µg/ml, read-out: Activity
[29] = system: Escherichia coli; test: Antibacterial activity against penicillin-susceptible Escherichia coli ATCC25922 assessed as log reduction in bacterial count at 2 times of MIC measured after 12 hrs by time kill kinetics assay; assay type: functional, organism-based

Compound	Activity [1]	Activity [2]	Activity [3]	Selectivity ratio [4]	Activity [6]	Activity [7]	Activity [9]	Activity [10]	MIC [11]	MBC [13]	Activity [14]	Activity [15]	MIC [16]	MIC [17]	Activity [18]	Activity [19]	other results
O=C1c2ccccc2-[n+]2ccc3c([nH]c4ccc(-c5ccccc5Cl)cc43)c21.[Cl-]	Active	Active	Active	4	Active	Active	Active	Active	50 µg/mL	50 µg/mL	Active	10%	0.195 µg/mL	0.049 µg/mL	>3 log10CFU/ml	Active	Activity [5]: Active; Activity [8]: 1 log10CFU/ml; Activity [12]: 49%
O=C1c2ccccc2-[n+]2ccc3c([nH]c4ccc(-c5ccccc5F)cc43)c21.[Cl-]	Active	Active	Active	1	Active	Active	Active	Active	12.5 µg/mL	6.25 µg/mL	Active	10%	0.195 µg/mL	0.024 µg/mL	>3 log10CFU/ml	Active	Activity [20]: 12%
O=C1c2ccccc2-[n+]2ccc3c([nH]c4ccc(-c5ccccc5C(F)(F)F)cc43)c21.[Cl-]	Active	Active	Active	4	Active		Active	Active	12.5 µg/mL	50 µg/mL	Active	10%	0.195 µg/mL	0.024 µg/mL	>3 log10CFU/ml	Active	Activity [21]: 3 log10CFU/ml; Activity [22]: Active; Activity [23]: 18%; viability at 24 h, 6.25 microg/ml [24]: 57%; Activity [25]: inactive; Ratio [26]: 12; Activity [27]: Active; viability at 24 h, 3.125 microg/ml [28]: 81%; Activity [29]: inactive
